{"source": "patent US9533953B2", "about": "“Method of preparation of crystal forms of 4-(cyclopropylmethoxy)-n-(3,5-dichloro-1-oxidopyridyn-4-yl)-5-methoxypyridine-2-carboxamide and crystal forms thereof” (SANOFI, priority 2012, dated 2017)", "format_in_all_cases": "physicochemical", "key": {"[1]": {"test": "Thermo-Gravimetric Analysis (TGA)", "experimental": "Analyses are carried out on a T.A. instruments TGAQ500 analyzer. Mass calibration is performed with 10 and 100 mg certified masses and the instrument is temperature-calibrated with alumel and nickel standards (Curie points of respectively 154° C. and 354° C.). Samples are exposed to a constant nitrogen stream of 60 mL/min and temperature ranges from 20° C. to 250° C. at a 5° C./min rate. The quantity of product lies between 2 and 5 mg. The powder is deposited in an open aluminum sample pan, which is itself placed in a platinum pan."}, "[2]": {"test": "Water-Activity Isotherm (DVS), water sorption/desorption at 25° C.", "experimental": "All experiments are performed on a DVS-1 automated gravimetric vapor sorption analyser (Surface Measurement Systems Ltd., London, UK). The DVS-1 measures the uptake and loss of vapor gravimetrically using a Cahn D200 recording ultra-microbalance with a mass resolution of ±0.1 μg. A controlled relative humidity is generated by mixing different proportions of dry and water saturated carrier gas streams (monitored by mass flow controllers). The temperature is maintained constant, ±0.1° C., by enclosing the entire system in a temperature-controlled incubator. A sample size between 4 and 10 mg is used. Prior to being exposed to any water vapor the samples are dried at 0% RH to remove any surface water present and establish a dry, baseline mass. Next, the samples are exposed to an increasing relative humidity raised by a step of 5% RH from 0% to 90% RH."}, "[3]": {"test": "Physical stability of the crystal form on heating, humidity and storage (XRPD)", "settings": "for temperature of transformation into another crystal form: A into B, D into E, E into B, G desolvates into D; for desolvation behaviour: slight heating / upon heating", "experimental": "High-resolution diagrams are recorded at ambient conditions on a PANalytical X'Pert Pro MPD powder diffractometer using the Bragg-Brentano (vertical 0-20 configuration) parafocusing geometry coupled with a X'Celerator detector. A sealed copper anode X-ray tube is used, running at 45 kV and 40 mA levels. An incident beam monochromator (Johansson type: a symmetrically cut curved germanium (111) crystal) produces pure Cu Kα1 radiation (λ[…]=1.54060 Å). A thin layer of the product is deposited on a single-crystal silicon wafer, cut out according to Si (510) crystallographic orientation that, by systematic extinction, impedes any Bragg reflection. In order to bring more crystallites into the diffraction position and thus reduce the influence of particle statistics on the measurements, a sample spinner is used. The spinner rotation speed is set at 1 revolution per second. The angular range extends from 2 to 50° in 2θ, with a 0.02° step size in 2θ. A variable counting time from 100 to 2500 seconds per step was used.\nXRPD analyses are carried out on a Siemens-Bruker D5000 Matic powder diffractometer using the Bragg-Brentano (vertical θ-2θ configuration) parafocusing geometry. A thin layer of the product is deposited on a single-crystalline silicon wafer, cut out according to Si(510) crystallographic orientation that, by systematic extinction, impedes any Bragg reflection. A sealed cobalt anode X-ray tube running at 40 kV and 30 mA levels is used. Two lines are typically emitted: CoKα1 (λ=1.7890 Å) and CoKα2 (λ=1.7929 Å). […] The primary beam passes through a parallel plate collimator (0.2 mm Soller slits), then through a divergence slit (0.2 mm). A Braun 50 M multicanal linear detector completes the setup. It has a 10°-wide detection window in angle 2θ."}, "[4]": {"test": "Behaviour under mechanical strain (mortar grinding, jet-milling)", "settings": "for effect of jet-milling on the crystalline form: DSC / XRPD", "experimental": "Crystal Form A is of particular interest because of its behaviour under mechanical strain. The effect of 30 seconds of mortar grinding was evaluated. […] The behaviour of amorphous phase present in ground form A was also studied. No recrystallization of the amorphous phase was detected through sorption/desorption of water at 25° C. Nevertheless, maturation of ground samples in pure water for 6 days at room temperature led to partial recrystallization of the amorphous phase into form A.\nA particle size close to 5 μm could be reached. The DSC analyses indicate that there is no modification of the crystalline structure before and after jet-milling of Form A.\nA particle size close to 5 μm could be reached."}}}
{"smiles": "COc1cnc(C(=O)Nc2c(Cl)c[n+]([O-])cc2Cl)cc1OCC1CC1", "note": "[Crystal Form A, 4-(cyclopropylmethoxy)-N-(3,5-dichloro-1-oxidopyridin-4-yl)-5-methoxypyridine-2-carboxamide]", "values": [{"measurement": "temperature beyond which thermal decomposition is observed", "setting": "[1]", "result": "> 190", "unit": "°C"}, {"measurement": "TGA weight loss", "setting": "[1]; from room temperature up to 190° C.", "result": "no weight loss"}, {"measurement": "hygroscopicity", "setting": "[2]; 25° C. isotherm", "result": "not hygroscopic"}, {"measurement": "water uptake", "setting": "[2]; 25° C., up to 90% of relative humidity (RH)", "result": "no significant water uptake"}, {"measurement": "temperature of transformation into another crystal form", "setting": "[3]; upon heating", "result": "above 100 °C"}, {"measurement": "amorphous phase after grinding (XRPD)", "setting": "[4]; 30 seconds of mortar grinding", "result": "appearance of amorphous phase was detected"}, {"measurement": "polymorphic transition after grinding (XRPD)", "setting": "[4]; 30 seconds of mortar grinding", "result": "no observed polymorphic transition"}, {"measurement": "particle size reached by jet-milling", "setting": "[4]", "result": "~5", "unit": "μm"}, {"measurement": "effect of jet-milling on the crystalline form", "setting": "[4]", "result": "without any impact on the crystalline form"}]}
{"smiles": "COc1cnc(C(=O)Nc2c(Cl)c[n+]([O-])cc2Cl)cc1OCC1CC1", "note": "[Crystal Form B, 4-(cyclopropylmethoxy)-N-(3,5-dichloro-1-oxidopyridin-4-yl)-5-methoxypyridine-2-carboxamide]", "values": [{"measurement": "temperature beyond which thermal decomposition is observed", "setting": "[1]", "result": "> 190", "unit": "°C"}]}
{"smiles": "COc1cnc(C(=O)Nc2c(Cl)c[n+]([O-])cc2Cl)cc1OCC1CC1", "note": "[Crystal Form C, 4-(cyclopropylmethoxy)-N-(3,5-dichloro-1-oxidopyridin-4-yl)-5-methoxypyridine-2-carboxamide]", "values": [{"measurement": "behaviour on storage", "setting": "[3]; 15 months of storage in ambient conditions", "result": "transformed into Crystal Form D and amorphous phase"}]}
{"smiles": "COc1cnc(C(=O)Nc2c(Cl)c[n+]([O-])cc2Cl)cc1OCC1CC1", "note": "[Crystal Form D, 4-(cyclopropylmethoxy)-N-(3,5-dichloro-1-oxidopyridin-4-yl)-5-methoxypyridine-2-carboxamide]", "values": [{"measurement": "temperature beyond which thermal decomposition is observed", "setting": "[1]", "result": "> 205", "unit": "°C"}, {"measurement": "TGA weight loss", "setting": "[1]; between 20 and 100° C.", "result": 0.2, "unit": "%"}, {"measurement": "TGA weight loss", "setting": "[1]; between 100 and 205° C.", "result": "no weight loss"}, {"measurement": "total water gain", "setting": "[2]; 25° C., at 90% RH", "result": 8.7, "unit": "%"}, {"measurement": "total water gain expressed as moles of water", "setting": "[2]; 25° C., at 90% RH", "result": "2 moles of water"}, {"measurement": "loss of water, last desorption step", "setting": "[2]; 25° C., between 70% and 0% RH, without hysteresis", "result": 1.3, "unit": "%"}, {"measurement": "water desorption, second desorption step", "setting": "[2]; 25° C., between 75% and 70% RH", "result": 6.4, "unit": "%"}, {"measurement": "water uptake, second sorption step", "setting": "[2]; 25° C., between 85% and 90% RH", "result": 6.9, "unit": "%"}, {"measurement": "temperature range in which the form is stable / physically unaltered", "setting": "[3]; upon heating", "result": "up to 110 °C"}, {"measurement": "temperature of transformation into another crystal form", "setting": "[3]; upon heating", "result": 110, "unit": "°C"}, {"measurement": "particle size reached by jet-milling", "setting": "[4]", "result": "~5", "unit": "μm"}, {"measurement": "effect of jet-milling on the crystalline form", "setting": "[4]", "result": "without any impact on the crystalline form"}]}
{"smiles": "COc1cnc(C(=O)Nc2c(Cl)c[n+]([O-])cc2Cl)cc1OCC1CC1", "note": "[Crystal Form E, 4-(cyclopropylmethoxy)-N-(3,5-dichloro-1-oxidopyridin-4-yl)-5-methoxypyridine-2-carboxamide]", "values": [{"measurement": "TGA weight loss", "setting": "[1]; between 100 and 170° C.", "result": 0.8, "unit": "%"}, {"measurement": "TGA weight loss", "setting": "[1]; from room temperature to 100° C.", "result": "no weight loss"}, {"measurement": "stability under room conditions", "setting": "[3]; room conditions", "result": "stable under room conditions"}, {"measurement": "temperature of transformation into another crystal form", "setting": "[3]; upon heating", "result": 140, "unit": "°C"}]}
{"smiles": "COc1cnc(C(=O)Nc2c(Cl)c[n+]([O-])cc2Cl)cc1OCC1CC1", "note": "[Crystal Form G, 4-(cyclopropylmethoxy)-N-(3,5-dichloro-1-oxidopyridin-4-yl)-5-methoxypyridine-2-carboxamide]", "values": [{"measurement": "temperature of transformation into another crystal form", "setting": "[3]; upon heating", "result": 70, "unit": "°C"}]}
{"smiles": "COc1cnc(C(=O)Nc2c(Cl)c[n+]([O-])cc2Cl)cc1OCC1CC1", "note": "[Crystal Form H, 4-(cyclopropylmethoxy)-N-(3,5-dichloro-1-oxidopyridin-4-yl)-5-methoxypyridine-2-carboxamide]", "values": [{"measurement": "desolvation behaviour", "setting": "[3]", "result": "desolvates easily into Crystal Form D"}]}
{"smiles": "COc1cnc(C(=O)Nc2c(Cl)c[n+]([O-])cc2Cl)cc1OCC1CC1", "note": "[Crystal Form I, 4-(cyclopropylmethoxy)-N-(3,5-dichloro-1-oxidopyridin-4-yl)-5-methoxypyridine-2-carboxamide]", "values": [{"measurement": "desolvation behaviour", "setting": "[3]", "result": "desolvates easily into form D"}]}
